# Values quoted from earlier work in US20130121963A1, “N-PHENYL-2-PYRIMIDINEAMINE DERIVATIVES” (Concert Pharmaceuticals Inc., priority 2008, published 2013).
structure (smiles),measurement,setting,value
Cc1ccc(NC(=O)c2ccc(CN3CCNCC3)cc2)cc1Nc1nccc(-c2cccnc2)n1 [N-demethylated piperazine derivative],half-life,from the FDA label for imatinib,40 h
same,plasma AUC of the metabolite relative to that of the parent,"percent of the parent (imatinib) plasma AUC, from the FDA label",approximately 15%
